Assay results: patent publication US10730851B2, “Polymorph of triaryldimethylpiperazine dihydrochloride and preparation method and application thereof” (priority 2016, dated 2020)
Where a name gives a salt, the structure may show the parent alone. Read-outs that look alike come from different tables or passages of the source.

Assays:
[1] = Dynamic solubility test in water, SGF, FeSSIF, FaSSIF; format: physicochemical; settings: for pH in clear solution: dihydrochloride
Procedure: The dynamic solubility of a free base, polymorph forms B, P, F, J and O in water or a biological medium such as Stimulated Gastric Fluid (SGF), Fed State Simulated Intestinal Fluid (FeSSIF) or Fasted State Simulated Intestinal Fluid (FaSSIF) is determined.
0.2 g sodium chloride and 0.1 g Triton X-100 is weighed and placed into a 100 mL volumetric flask. Purified water is added to dissolve. A stir is performed until the solid is completely dissolved. About 135 μL concentrated hydrochloric acid solution (37%, […]) is added, then the pH is adjusted to 1.8 with […] hydrochloric acid or 1 mmoL/L sodium hydroxide. Finally, the volume is fixed with purified water to obtain Stimulated Gastric Fluid (SGF) for later use.
Each of 0.41 mL glacial acetic acid, 0.20 g sodium hydroxide and 0.59 g sodium chloride is weighed and placed to a 50 mL volumetric flask. About 48 mL purified water is added to dissolve, the pH is adjusted to 5.0 with 1 mmoL/L hydrochloric acid or 1 mmoL/L sodium hydroxide, and the volume is fixed with purified water. Then 0.56 g of Simulated Intestinal Fluid powder (SIF powder for short, which is composed of […] with a molar ratio of 4:1) is added, stirred and ultrasonically dissolved to obtain Fed State Simulated Intestinal Fluid (FeSSIF) for later use.
Each of 0.17 g of anhydrous sodium dihydrogen phosphate (NaH2PO4), 0.021 g of sodium hydroxide and 0.31 g of sodium chloride is weighed and placed into a 50 mL volumetric flask. About 48 mL of purified water is added to dissolve, the pH is adjusted to 6.5 with 1 mmoL/L hydrochloric acid or 1 mmoL/L sodium hydroxide, and the volume is fixed with purified water. 0.11 g of SIF powder is added, stirred and ultrasonically dissolved to obtain Fasted State Simulated Intestinal Fluid (FaSSIF) for later use.
Each 30 mg of the free base, and polymorph forms B, P, F, J and O are weighed. 3 mL of purified water, Stimulated Gastric Fluid (SGF), Fed State Simulated Intestinal Fluid (FeSSIF) or Fasted State Simulated Intestinal Fluid (FaSSIF)) is added and oscillated at room temperature. 0.6 mL of suspension is taken each time at a set time point, filtered and separated with a 0.45 μm nylon filter membrane, then XRPD characterization is performed on the solid sample, and the concentration in the clear solution is measured by HPLC.

[2] = test system: SPF-grade SD rats; test: Forced swimming test; format: in vivo; settings: for Behavior duration, Static / Behavior duration, Swimming / Behavior duration, Wall climbing / Number of behaviors, Static / Number of behaviors, Swimming / Number of behaviors, Wall climbing: x ± SEM; for antidepressant effect in forced swimming test (in words): rats, dihydrochloride
Procedure: Forced swimming test is used to test the antidepressant effects of polymorph forms P, F, O, B and J.
the swimming test equipment is a transparent glass round cylinder with a height of 46 cm and an inner diameter of 20 cm, the test water temperature is 23° C.˜25° C., the test water depth is 30 cm, and each cylinder is used only once.
300 mg of a polymorph form P is weighed with an electronic balance, and the polymorph form P is dissolved with 0.9% normal saline, and finally the volume is fixed to 100 mL with 0.9% normal saline, at this time, the concentration of dihydrochloride in the experimental reagent is 3 mg/mL for later use.
600 mg of a polymorph form P is weighed with an electronic balance, and the polymorph form P is dissolved with 0.9% normal saline, and finally the volume is fixed to 100 mL with 0.9% normal saline, at this time, the concentration of dihydrochloride in the experimental reagent is 6 mg/mL for later use.
400 mg of desipramine (DMI) is weighed with an electronic balance, DMI is dissolved with 0.9% normal saline, and then the volume is fixed to 100 mL with 0.9% normal saline for later use.
Forty SPF-grade SD rats are prepared and randomly divided into 4 groups, namely vehicle control group, positive control group, experimental group 1 and experimental group 2, with 10 rats in each group. The day before the test, the rats were placed in water for 15 min to pre-swim for 15 min in advance to adapt to the swimming test environment, then taken out and dried, placed in the cage under an infrared lamp for 15 min and then placed in the original cage. After 24 h, a formal swimming test is conducted, that is, the rats are put into water again after 24 h, and the rats are continuously observed for 5 min. The swimming process are needed to be photographed. The drug is administered during two swimming sessions.
The positive control group containing DMI is administered three times, at 23.5 h, 5 h and 1 h before the formal swimming test respectively. Vehicle control group, experimental group 1 and experimental group 2 are each administered only once and subcutaneously within 1 h.
The behaviors of the rats are scored by the scorer every 5 seconds after recording the experiment.
1) Static—when the rat floats on the water surface without struggling and moves only to keep its head above the water surface, the rat is evaluated as static;
2) Swimming—if the rats have obvious swimming behaviors, not only to keep their heads above the water surface, or to travel around in a round cylinder, they are evaluated as swimming;
3) Wall climbing—the rats' front paws have obvious behavior of entering and leaving the water surface, usually, rats are evaluated as wall climbing in front of the round cylinder wall.
All behavioral are scored by a single person. To avoid bias of observation, the scorer only observed and scored without knowing the administration situations. Then multiple test fragments are randomly selected, and the scorer will score the second round to determine the accuracy of observation. The test video is scored again by the second scorer to determine the accuracy between scorers. The second scorer are also required to observe without knowing the drug administration. Finally, in order to determine the effectiveness of the method, the first scorer scored again and recorded the duration of various behaviors with a stopwatch.
SPSSwin11.0 software is used for variance analysis. One-way variance analysis is used for homogeneity of variance, and Dunnett test is used for heterogeneity of variance.

[3] = Experiment group 1, 30 mg/kg Sc once
[4] = Experiment group 2, 60 mg/kg Sc once

| SMILES | solubility compared with the free base [1] | pH in clear solution ([1]; FaSSIF, Time 1) | pH in clear solution ([1]; FaSSIF, Time 2) | pH in clear solution ([1]; FaSSIF, Time 4) | pH in clear solution ([1]; FaSSIF, Time 24) | pH in clear solution ([1]; FeSSIF, Time 1) | pH in clear solution ([1]; FeSSIF, Time 2) | pH in clear solution ([1]; FeSSIF, Time 4) | pH in clear solution ([1]; FeSSIF, Time 24) | pH in clear solution ([1]; SGF, Time 1) | pH in clear solution ([1]; SGF, Time 2) | pH in clear solution ([1]; SGF, Time 4) | pH in clear solution ([1]; SGF, Time 24) | pH in clear solution ([1]; Water, Time 1) | pH in clear solution ([1]; Water, Time 2) | pH in clear solution ([1]; Water, Time 4) | pH in clear solution ([1]; Water, Time 24) | Crystal form of insoluble solid sample ([1]; pH 1.8) | solubility compared with the free base ([1]; pH 1.8) | antidepressant effect in forced swimming test (in words) [2] | other results |
| --- | --- | --- | --- | --- | --- | --- | --- | --- | --- | --- | --- | --- | --- | --- | --- | --- | --- | --- | --- | --- | --- |
| CC1CCN(C(=O)c2ccc([C@H](c3cccc(O)c3)N3C[C@@H](C)N(Cc4cccc(F)c4)C[C@@H]3C)cc2)CC1 [Polymorph form P, (4-((R)-((2S,5R)-4-(3-fluorobenzyl)-(2,5-dimethylpiperazine-1-yl)(3-hydroxyphenyl)methyl)phenyl)(4-methylpiperidine-1-yl)methanone dihydrochloride] | significantly improved | 3.0 | 2.7 | 2.2 | 2.6 | 5.0 | 4.9 | 5.0 | 4.6 | 1.6 | 1.7 | 1.6 | 1.5 | 1.9 | 1.9 | 1.9 | 1.6 | invariability | close to or slightly improved | better antidepressant effect | Solubility ([1]; pH 1.8, simulated gastric fluid, thermodynamic from solid, Solubility): 3400 µg/mL; Crystal form of insoluble solid sample ([1]; pH 5): invariability; Solubility ([1]; pH 5, fessif, thermodynamic from solid, Solubility): 430 µg/mL; Crystal form of insoluble solid sample ([1]; pH 6.5): invariability; Behavior duration, Static [2, 3]: 45.5 ± 7.5 s; Behavior duration, Swimming [2, 3]: 142.5 ± 21.5 s; Behavior duration, Wall climbing [2, 3]: 114.0 ± 19.0 s; Number of behaviors, Static [2, 3]: 9.1 ± 1.5 times; Number of behaviors, Swimming [2, 3]: 28.5 ± 4.3 times; Number of behaviors, Wall climbing [2, 3]: 22.8 ± 3.8 times; Behavior duration, Static [2, 4]: 88.5 ± 8.0 s; Behavior duration, Swimming [2, 4]: 122.0 ± 14.0 s; Behavior duration, Wall climbing [2, 4]: 91.0 ± 5.5 s; Number of behaviors, Static [2, 4]: 17.7 ± 1.6 times; Number of behaviors, Swimming [2, 4]: 24.4 ± 2.8 times; Number of behaviors, Wall climbing [2, 4]: 18.2 ± 1.1 times |
| CC1CCN(C(=O)c2ccc([C@H](c3cccc(O)c3)N3C[C@@H](C)N(Cc4cccc(F)c4)C[C@@H]3C)cc2)CC1 [Polymorph form O, (4-((R)-((2S,5R)-4-(3-fluorobenzyl)-(2,5-dimethylpiperazine-1-yl)(3-hydroxyphenyl)methyl)phenyl)(4-methylpiperidine-1-yl)methanone dihydrochloride] | significantly improved | 2.2 | 2.0 | 2.4 | 2.2 | 5.0 | 4.8 | 5.0 | 5.2 | 1.5 | 1.6 | 1.6 | 1.7 | 1.9 | 1.8 | 1.9 | 1.4 |  | close to or slightly improved | effectively reduce the static times and duration of forced swimming in rats | Crystal form of insoluble solid sample [1]: invariability; Solubility [1]: 6200 µg/mL |
| CC1CCN(C(=O)c2ccc([C@H](c3cccc(O)c3)N3C[C@@H](C)N(Cc4cccc(F)c4)C[C@@H]3C)cc2)CC1 [Polymorph form F, (4-((R)-((2S,5R)-4-(3-fluorobenzyl)-(2,5-dimethylpiperazine-1-yl)(3-hydroxyphenyl)methyl)phenyl)(4-methylpiperidine-1-yl)methanone dihydrochloride] | significantly improved | 3.5 | 4.6 | 4.2 | 4.5 | 4.8 | 4.9 | 4.9 | 4.9 | 1.6 | 1.6 | 1.6 | 1.4 | 1.8 | 1.9 | 1.8 | 1.5 | invariability | close to or slightly improved | effectively reduce the static times and duration of forced swimming in rats | Crystal form of insoluble solid sample ([1]; pH 5): invariability; Crystal form of insoluble solid sample ([1]; pH 6.5): invariability |
